Converted amounts (≈) assume the structure as drawn.
Key:
Assay in all cases: ≥ marks a high value that may be exact or a test limit, other limits are often not marked, values filed in µg/mL are converted to µM
[1] = tested on: Escherichia coli BW25113
[2] = tested on: Escherichia coli J2210
[3] = tested on: Escherichia coli JJ2489
[4] = tested on: Escherichia coli JW0013
[5] = tested on: Escherichia coli JW0368 ΔsbmA
[6] = tested on: Escherichia coli JW2778 ΔygdD
[7] = tested on: Escherichia coli MC1041
[8] = tested on: Salmonella enterica subsp. enterica serovar Enteritidis MH91989
[9] = tested on: Salmonella typhimurium SL1344
[10] = tested on: Enterococcus faecium ATCC BAA-2316
[11] = tested on: Escherichia coli ATCC 25922
[12] = tested on: Escherichia coli ATCC 35218
[13] = tested on: Pseudomonas aeruginosa ATCC BAA-2114
[14] = tested on: Staphylococcus aureus ATCC 29213
[15] = tested on: Staphylococcus aureus ATCC 33591
[16] = tested on: Staphylococcus aureus ATCC 43300
[17] = tested on: Staphylococcus aureus ATCC BAA-41
[18] = tested on: Staphylococcus epidermidis ATCC 12228
[19] = tested on: Candida albicans ATCC 5314
[20] = tested on: Staphylococcus aureus ATCC 25923
[21] = tested on: Staphylococcus aureus ATCC 6538
[22] = tested on: Staphylococcus aureus ATCC 8325-4
[23] = tested on: Staphylococcus aureus MR
[24] = tested on: Staphylococcus aureus
[25] = tested on: Streptococcus mutans ATCC UA159
[26] = tested on: Streptococcus sanguinis ATCC 10556
[27] = tested on: Escherichia coli C25
[28] = tested on: Bacillus subtilis 168
[29] = tested on: Escherichia coli BL21
[30] = tested on: Escherichia coli ESBL
[31] = tested on: Enterococcus faecium V286-17
[32] = tested on: Escherichia coli E416-7
[33] = tested on: Klebsiella pneumoniae ATCC 13883
[34] = tested on: Klebsiella pneumoniae E406-17
[35] = tested on: Pseudomonas aeruginosa E411-17
[36] = tested on: Pseudomonas aeruginosa PAO1
[37] = tested on: Staphylococcus aureus JE2
[38] = tested on: Staphylococcus aureus M838-17
[39] = tested on: Bacillus amyloliquefaciens ATCC 23842
[40] = tested on: Bacillus cereus ATCC 14579
[41] = tested on: Bacillus licheniformis ATCC 14580
[42] = tested on: Bacillus subtilis ATCC 6051
[43] = tested on: Enterococcus faecalis 1F-1
[44] = tested on: Enterococcus faecalis A4
[45] = tested on: Enterococcus faecium 4W-9
[46] = tested on: Enterococcus faecium 5F-10
[47] = tested on: Proteus mirabilis ATCC 35659
[48] = tested on: Salmonella enterica ATCC H9812
[49] = tested on: Staphylococcus aureus 215

CC[C@H](C)[C@H](NC(=O)[C@H](CCCN=C(N)N)NC(=O)[C@@H](N)CCCN=C(N)N)C(=O)N[C@@H](CCCCN)C(=O)N[C@@H](CCCCN)C(=O)N[C@@H](CCCN=C(N)N)C(=O)N1CCC[C@H]1C(=O)N1CCC[C@H]1C(=O)N[C@@H](CCCN=C(N)N)C(=O)N[C@@H](CC(C)C)C(=O)N1CCC[C@H]1C(=O)N[C@@H](CCCN=C(N)N)C(=O)N1CCC[C@H]1C(=O)N[C@@H](CCCN=C(N)N)C(=O)N1CCC[C@H]1C(=O)N[C@@H](CCCCN)C(=O)O [RRIKKRPPRLPRPRPK]
MIC [1]: 0.078 µM (≈ 0.16 µg/mL) | MIC [2]: 0.167 µM (≈ 0.343 µg/mL) | MIC [3]: 0.12 µM (≈ 0.246 µg/mL) | MIC [4]: 0.06 µM (≈ 0.123 µg/mL) | MIC [5]: 0.06 µM (≈ 0.123 µg/mL) | MIC [6]: 0.12 µM (≈ 0.246 µg/mL) | MIC [7]: 0.06 µM (≈ 0.123 µg/mL) | MIC [8]: 0.167 µM (≈ 0.343 µg/mL) | MIC [9]: 0.12 µM (≈ 0.246 µg/mL)

CC[C@H](C)[C@H](NC(=O)[C@H](CCCN=C(N)N)NC(=O)[C@H](CCC(N)=O)NC(=O)[C@@H](NC(=O)[C@@H](NC(=O)[C@H](CCCN=C(N)N)NC(=O)[C@H](CCCCN)NC(=O)[C@H](Cc1ccccc1)NC(=O)[C@@H](NC(=O)[C@@H]1CCCN1C(=O)[C@H](CO)NC(=O)[C@H](CC(C)C)NC(=O)[C@H](CCCCN)NC(=O)[C@H](CCCCN)NC(=O)[C@H](Cc1ccccc1)NC(=O)[C@H](CC(C)C)NC(=O)[C@H](CCCCN)NC(=O)[C@H](CCCCN)NC(=O)[C@H](Cc1ccccc1)NC(=O)[C@@H](N)CCCCN)C(C)C)[C@@H](C)CC)C(C)C)C(=O)N[C@@H](CCCCN)C(=O)N[C@@H](CC(=O)O)C(=O)N[C@@H](Cc1ccccc1)C(=O)N[C@@H](CC(C)C)C(=O)N[C@@H](CCCN=C(N)N)C(=O)O [KFKKLFKKLSPVFKRIVQRIKDFLR]
MIC [10]: 20 µM (≈ 63.3 µg/mL) | MIC [11]: 20 µM (≈ 63.3 µg/mL) | MIC [12]: 20 µM (≈ 63.3 µg/mL) | MIC [13]: 10 µM (≈ 31.6 µg/mL) | MIC [14]: 20 µM (≈ 63.3 µg/mL) | MIC [15]: 20 µM (≈ 63.3 µg/mL) | MIC [16]: 20 µM (≈ 63.3 µg/mL) | MIC [17]: 20 µM (≈ 63.3 µg/mL) | MIC [18]: 20 µM (≈ 63.3 µg/mL)

CC[C@H](C)[C@H](NC(=O)[C@H](CCCCN)NC(=O)[C@H](CCCN=C(N)N)NC(=O)[C@H](CCC(=O)O)NC(=O)[C@H](Cc1ccc(O)cc1)NC(=O)[C@@H](N)CO)C(=O)N[C@@H](CC(N)=O)C(=O)N[C@@H](CCCN=C(N)N)C(=O)N[C@@H](Cc1cnc[nH]1)C(=O)N[C@@H](Cc1ccccc1)C(=O)N[C@@H](CCCCN)C(=O)N[C@H](C(=O)N[C@@H](CC(C)C)C(=O)N[C@@H](CCCCN)C(=O)N[C@@H](CCCCN)C(=O)N[C@@H](CC(N)=O)C(=O)N[C@@H](CC(C)C)C(=O)N[C@@H](CCCCN)C(=O)N[C@@H](CCCCN)C(=O)N[C@@H](CCCCN)C(N)=O)[C@@H](C)O [SYERKINRHFKTLKKNLKKK]
MIC [19]: 25 µM (≈ 64 µg/mL) | MIC [20]: 12.5 µM (≈ 32 µg/mL) | MIC [14]: 12.5 µM (≈ 32 µg/mL) | MIC [21]: 12.5 µM (≈ 32 µg/mL) | MIC [22]: 6.25 µM (≈ 16 µg/mL) | MIC [23]: 12.5 µM (≈ 32 µg/mL) | MIC [24]: 6.25 µM (≈ 16 µg/mL) | MIC [25]: 25 µM (≈ 64 µg/mL) | MIC [26]: 25 µM (≈ 64 µg/mL)

CC[C@H](C)[C@H](NC(=O)CNC(=O)[C@H](CCCN=C(N)N)NC(=O)[C@H](Cc1ccc(O)cc1)NC(=O)[C@@H](NC(=O)[C@H](CCCN=C(N)N)NC(=O)[C@H](Cc1ccccc1)NC(=O)[C@H](Cc1c[nH]c2ccccc12)NC(=O)[C@@H](N)CCCCN)C(C)C)C(=O)N[C@@H](Cc1ccc(O)cc1)C(=O)N[C@@H](CCCN=C(N)N)C(N)=O [KWFRVYRGIYR]
MIC [27]: 8.5 µM (≈ 13.1 µg/mL) | MIC [20]: 17 µM (≈ 26.2 µg/mL)

CC[C@H](C)[C@H](N)C(=O)N[C@H](C(=O)N[C@@H](CCCCN)C(=O)N[C@@H](CCCCN)C(=O)N[C@H](C(=O)N[C@H](C(=O)N[C@@H](CCCCN)C(=O)N[C@@H](CCCCN)C(=O)N[C@H](C(=O)N[C@H](C(=O)N[C@@H](CCCCN)C(=O)N[C@@H](CCCCN)C(=O)N[C@H](C(N)=O)[C@@H](C)CC)[C@@H](C)CC)[C@@H](C)CC)[C@@H](C)CC)[C@@H](C)CC)[C@@H](C)CC [IIKKIIKKIIKKI]
MIC [28]: 5 µM (≈ 7.89 µg/mL) | MIC [29]: 2.5 µM (≈ 3.95 µg/mL) | MIC [30]: 12 µM (≈ 18.9 µg/mL) | MIC [24]: 7.5 µM (≈ 11.8 µg/mL)

CC(C)C[C@H](NC(=O)[C@H](CC(C)C)NC(=O)[C@H](CCCCN)NC(=O)[C@H](CC(C)C)NC(=O)CNC(=O)[C@H](CC(C)C)NC(=O)[C@H](CO)NC(=O)[C@H](CC(C)C)NC(=O)[C@H](CC(C)C)NC(=O)[C@H](CC(C)C)NC(=O)[C@H](CO)NC(=O)[C@H](CC(C)C)NC(=O)CN)C(N)=O [GLSLLLSLGLKLL]
MIC [31]: 4.4 µM (≈ 5.89 µg/mL) | MIC [11]: > 25 µM | MIC [32]: ≥ 50 µM | MIC [33]: 25 µM (≈ 33.5 µg/mL) | MIC [34]: ≥ 50 µM | MIC [35]: ≥ 50 µM | MIC [36]: > 25 µM | MIC [37]: 1.56 µM (≈ 2.09 µg/mL) | MIC [38]: 3.1 µM (≈ 4.15 µg/mL)

CC(=O)N[C@@H](CCC(=O)O)C(=O)N[C@@H](CC(C)C)C(=O)N[C@@H](CC(C)C)C(=O)N[C@@H](CO)C(=O)N[C@@H](CCCN=C(N)N)C(=O)N[C@H](C(=O)N[C@@H](CC(N)=O)C(=O)O)C(C)C [ELLSRVN]
MIC [39]: ≥ 154 µM | MIC [40]: ≥ 154 µM | MIC [41]: ≥ 154 µM | MIC [42]: ≥ 154 µM | MIC [43]: ≥ 154 µM | MIC [44]: ≥ 154 µM | MIC [45]: ≥ 154 µM | MIC [46]: ≥ 154 µM | MIC [11]: 77.1 µM (≈ 67.2 µg/mL) | MIC [47]: ≥ 154 µM | MIC [36]: 154 µM (≈ 134 µg/mL) | MIC [48]: ≥ 154 µM | MIC [49]: ≥ 38.6 µM | MIC [14]: 38.6 µM (≈ 33.6 µg/mL) | MIC [23]: ≥ 38.6 µM

Source: DBAASP
